Where two headings read alike, the source gives them in different places.
Columns and labels:
[1] = system: Key Grass and Sedge Weeds as well as Grass Crops; assay: Post-Emergent Test II: postemergent herbicidal activity, visual rating after 14 d (Table 8); assay type: in vivo; conditions: post-emergence, 336 h; for pest or weed control at 35 g/ha: 35 g ai/ha; for pest or weed control at 70 g/ha: 70 g ai/ha; for pest or weed control at 140 g/ha: 140 g ai/ha
In short: (§1)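 Track-sprayed young seedlings (first/second true leaf) at 187 L/ha across a 2-fold rate series from the high rate down to 1/16×. Kept in greenhouse at 23-29° C day, subirrigated. Injury rated by eye after 14 d, 0 = no injury, 100 = complete kill.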

[2] = system: Key Broadleaf Weed and Crop Species; assay: Post-Emergent Test II: postemergent herbicidal activity, visual rating after 14 d (Table 7); assay type: in vivo; conditions: post-emergence, 336 h; for pest or weed control at 35 g/ha: 35 g ai/ha; for pest or weed control at 70 g/ha: 70 g ai/ha; for pest or weed control at 140 g/ha: 140 g ai/ha
In short: as §1

[3] = barnyardgrass (Echinochloa crus-galli), read-out: Visual Growth Reduction (%) 14 Days After Application ECHCG
[4] = giant foxtail (Setaria faberi), read-out: Visual Growth Reduction (%) 14 Days After Application SETFA
[5] = maize, corn (Zea mays), read-out: Visual Growth Reduction (%) 14 Days After Application ZEAMX
[6] = rice (Oryza sativa), read-out: Visual Growth Reduction (%) 14 Days After Application ORYSA
[7] = wheat, spring (Triticum aestivum), read-out: Visual Growth Reduction (%) 14 Days After Application TRZAS
[8] = yellow nutsedge (Cyperus esculentus), read-out: Visual Growth Reduction (%) 14 Days After Application CYPES
[9] = lambsquarters (Chenopodium album), read-out: Visual Growth Reduction (%) 14 Days After Application CHEAL
[10] = oilseed rape, canola (Brassica napus), read-out: Visual Growth Reduction (%) 14 Days After Application BRSNN
[11] = redroot pigweed (Amaranthus retroflexus), read-out: Visual Growth Reduction (%) 14 Days After Application AMARE
[12] = sunflower (Helianthus annuus), read-out: Visual Growth Reduction (%) 14 Days After Application HELAN
[13] = velvetleaf (Abutilon theophrasti), read-out: Visual Growth Reduction (%) 14 Days After Application ABUTH
[14] = wild poinsettia (Euphorbia heterophylla), read-out: Visual Growth Reduction (%) 14 Days After Application EPHHL

Row | SMILES | pest or weed control at 35 g/ha [1, 3] [%] | pest or weed control at 70 g/ha [1, 3] [%] | pest or weed control at 140 g/ha [1, 3] [%] | pest or weed control at 35 g/ha [1, 4] [%] | pest or weed control at 70 g/ha [1, 4] [%] | pest or weed control at 140 g/ha [1, 4] [%] | pest or weed control at 35 g/ha [1, 5] [%] | pest or weed control at 70 g/ha [1, 5] [%] | pest or weed control at 140 g/ha [1, 5] [%] | pest or weed control at 35 g/ha [1, 6] [%] | pest or weed control at 70 g/ha [1, 6] [%] | pest or weed control at 140 g/ha [1, 6] [%] | pest or weed control at 35 g/ha [1, 7] [%] | pest or weed control at 70 g/ha [1, 7] [%] | pest or weed control at 140 g/ha [1, 7] [%] | pest or weed control at 35 g/ha [1, 8] [%] | pest or weed control at 70 g/ha [1, 8] [%] | pest or weed control at 140 g/ha [1, 8] [%] | pest or weed control at 35 g/ha [2, 9] [%] | pest or weed control at 70 g/ha [2, 9] [%] | other results
1 | COC(=O)c1nc(-c2cc3c(cc2F)OC(F)(F)O3)c(F)c(N)c1Cl [Compound 9] | 85 to 94 | 85 to 94 | 95 to 100 | 45 to 59 | 60 to 74 | 75 to 84 | 60 to 74 | 60 to 74 | 75 to 84 | 0 to 29 | 0 to 29 | 0 to 29 | 30 to 44 | 45 to 59 | 60 to 74 | 95 to 100 | 95 to 100 | 95 to 100 | 85 to 94 | 85 to 94 | pest or weed control at 140 g/ha [2, 9]: 85 to 94%; pest or weed control at 35 g/ha [2, 10]: 75 to 84%; pest or weed control at 70 g/ha [2, 10]: 85 to 94%; pest or weed control at 140 g/ha [2, 10]: 95 to 100%; pest or weed control at 35 g/ha [2, 11]: 0 to 29%; pest or weed control at 70 g/ha [2, 11]: 0 to 29%; pest or weed control at 140 g/ha [2, 11]: 0 to 29%; pest or weed control at 35 g/ha [2, 12]: 85 to 94%; pest or weed control at 70 g/ha [2, 12]: 85 to 94%; pest or weed control at 140 g/ha [2, 12]: 95 to 100%; pest or weed control at 35 g/ha [2, 13]: 75 to 84%; pest or weed control at 70 g/ha [2, 13]: 85 to 94%; pest or weed control at 140 g/ha [2, 13]: 95 to 100%; pest or weed control at 35 g/ha [2, 14]: 75 to 84%; pest or weed control at 70 g/ha [2, 14]: 85 to 94%; pest or weed control at 140 g/ha [2, 14]: 85 to 94%
2 | COC(=O)c1nc(-c2ccc3c(c2F)OC(F)(F)O3)c(F)c(N)c1Cl [Compound 10] | 95 to 100 | 95 to 100 | 95 to 100 | 75 to 84 | 95 to 100 | 95 to 100 | 60 to 74 | 75 to 84 | 75 to 84 | 0 to 29 | 0 to 29 | 0 to 29 | 45 to 59 | 60 to 74 | 60 to 74 | 95 to 100 | 95 to 100 | 95 to 100 | 85 to 94 | 85 to 94 | pest or weed control at 140 g/ha [2, 9]: 95 to 100%; pest or weed control at 35 g/ha [2, 10]: 75 to 84%; pest or weed control at 70 g/ha [2, 10]: 85 to 94%; pest or weed control at 140 g/ha [2, 10]: 85 to 94%; pest or weed control at 35 g/ha [2, 11]: 85 to 94%; pest or weed control at 70 g/ha [2, 11]: 95 to 100%; pest or weed control at 140 g/ha [2, 11]: 95 to 100%; pest or weed control at 35 g/ha [2, 12]: 85 to 94%; pest or weed control at 70 g/ha [2, 12]: 85 to 94%; pest or weed control at 140 g/ha [2, 12]: 85 to 94%; pest or weed control at 35 g/ha [2, 13]: 85 to 94%; pest or weed control at 70 g/ha [2, 13]: 95 to 100%; pest or weed control at 140 g/ha [2, 13]: 95 to 100%; pest or weed control at 35 g/ha [2, 14]: 95 to 100%; pest or weed control at 70 g/ha [2, 14]: 95 to 100%; pest or weed control at 140 g/ha [2, 14]: 95 to 100%
3 | Nc1c(F)c(-c2ccc3c(c2F)OC(F)(F)O3)nc(C(=O)O)c1Cl [Compound 11] | 85 to 94 | 95 to 100 | 95 to 100 | 75 to 84 | 85 to 94 | 95 to 100 | 60 to 74 | 60 to 74 | 75 to 84 | 0 to 29 | 0 to 29 | 30 to 44 | 60 to 74 | 60 to 74 | 75 to 84 | 0 to 29 | 95 to 100 | 95 to 100 | 95 to 100 | 95 to 100 | pest or weed control at 140 g/ha [2, 9]: 95 to 100%; pest or weed control at 35 g/ha [2, 10]: 85 to 94%; pest or weed control at 70 g/ha [2, 10]: 85 to 94%; pest or weed control at 140 g/ha [2, 10]: 85 to 94%; pest or weed control at 35 g/ha [2, 12]: 95 to 100%; pest or weed control at 70 g/ha [2, 12]: 95 to 100%; pest or weed control at 140 g/ha [2, 12]: 95 to 100%; pest or weed control at 35 g/ha [2, 13]: 85 to 94%; pest or weed control at 70 g/ha [2, 13]: 85 to 94%; pest or weed control at 140 g/ha [2, 13]: 95 to 100%; pest or weed control at 35 g/ha [2, 14]: 95 to 100%; pest or weed control at 70 g/ha [2, 14]: 95 to 100%; pest or weed control at 140 g/ha [2, 14]: 95 to 100%
4 | COC(=O)c1nc(-c2cc3c(cc2Cl)OC(F)(F)O3)c(F)c(N)c1Cl [Compound 12] | 0 to 29 | 0 to 29 | 0 to 29 | 0 to 29 | 0 to 29 | 0 to 29 | 0 to 29 | 0 to 29 | 0 to 29 | 0 to 29 | 0 to 29 | 0 to 29 | 0 to 29 | 0 to 29 | 0 to 29 | 0 to 29 | 0 to 29 | 0 to 29 | 0 to 29 | 0 to 29 | pest or weed control at 140 g/ha [2, 9]: 0 to 29%; pest or weed control at 35 g/ha [2, 10]: 0 to 29%; pest or weed control at 70 g/ha [2, 10]: 0 to 29%; pest or weed control at 140 g/ha [2, 10]: 0 to 29%; pest or weed control at 35 g/ha [2, 11]: 0 to 29%; pest or weed control at 70 g/ha [2, 11]: 0 to 29%; pest or weed control at 140 g/ha [2, 11]: 0 to 29%; pest or weed control at 35 g/ha [2, 12]: 0 to 29%; pest or weed control at 70 g/ha [2, 12]: 0 to 29%; pest or weed control at 140 g/ha [2, 12]: 0 to 29%; pest or weed control at 35 g/ha [2, 13]: 0 to 29%; pest or weed control at 70 g/ha [2, 13]: 0 to 29%; pest or weed control at 140 g/ha [2, 13]: 60 to 74%; pest or weed control at 35 g/ha [2, 14]: 0 to 29%; pest or weed control at 70 g/ha [2, 14]: 0 to 29%; pest or weed control at 140 g/ha [2, 14]: 0 to 29%
